From patent US8338414B2, “Immunosuppressive agent and anti-tumor agent comprising heterocyclic compound as active ingredient” (Zenyaku Kogyo KabushikiKaisha, priority 2005, dated 2012)
Where two headings read alike, the source gives them in different places.

Key:
THP-1 cells = assay: Proliferation inhibitory activity on hematologic neoplasm cells, THP-1; assay type: cell-based; conditions: 3 days, Alamar Blue
Protocol: (§1) Daudi cells (5×10^5 cells/mL), Jurkat cells (5×10^5 cells/mL), THP-1 cells (5×10^5 cells/mL), U 937 cells (5×10^5 cells/mL), and HL 60 cells (5×10^5 cells/mL) suspended in RPMI 1640 medium (containing 10% fetal bovine serum, 10 mM HEPES, 1 mM pyruvic acid, 4.5 g/L glucose, 100 units/mL penicillin, and 0.1 mg/mL streptomycin) were seeded in 96 well plates at a capacity of 0.135 mL per well. Serial dilutions of test substances were added to respective wells at 15 μL/well, and incubated under conditions of carbon dioxide 5% at 37° C. for 3 days. Thereafter, Alamar Blue solution was added at 50 μL, and after incubation for one day, the fluorescence intensity at 590 nm using an excitation wavelength of 530 nm was determined by Cytoflour 4000 (Applied Biosystems).

[1] = system: human peripheral blood mononuclear cells; assay: Proliferation inhibition assay for human peripheral blood mononuclear cells; assay type: cell-based; conditions: PBMC, anti-CD3 and anti-CD28 antibody, 3 days, Alamar Blue
Protocol: 4 mL of blood collected from healthy subjects was placed on 3 mL of MonoPoly Resolving Medium, and after centrifugation, the mononuclear cell (PBMC) fraction was collected. After washing with saline, PBMC (1×10^5 cells/mL) was suspended in RPMI 1640 medium (containing 10% fetal bovine serum, 10 mM HEPES, 1 mM pyruvic acid, and 4.5 g/L glucose). Next, after having added an anti-CD28 antibody (1 μg/mL) to the suspension, they were seeded on an anti-human CD3 T cell activation plate (BD Bioscience) at a capacity of 0.135 mL per well. Then, serial dilutions of test substances were added to respective wells, and incubated under conditions of carbon dioxide 5% at a temperature 37° C. After 3 days, Alamar Blue solution was added at 50 μL per well, and after incubation for one day, a fluorescence intensity at 590 nm using an excitation wavelength of 530 nm was determined by Cytoflour 4000 (Applied Biosystems).

HL 60 cells = assay: Proliferation inhibitory activity on hematologic neoplasm cells, HL60; assay type: cell-based; conditions: 3 days, Alamar Blue
Protocol: as §1

Daudi cells = assay: Proliferation inhibitory activity on hematologic neoplasm cells, Daudi; assay type: cell-based; conditions: 3 days, Alamar Blue
Protocol: as §1

U 937 cells = assay: Proliferation inhibitory activity on hematologic neoplasm cells, U937; assay type: cell-based; conditions: 3 days, Alamar Blue
Protocol: as §1

[2] = system: Rabbit synoviocytes HIG-82; assay: Inhibition assay for proliferation of rabbit synoviocyte; assay type: cell-based; conditions: HIG-82, 3 days, Alamar Blue
Protocol: Rabbit synoviocytes HIG-82 suspended in HAM medium (containing 10% fetal bovine serum, 25 mM HEPES, and 0.1 mg/mL kanamycin) (with 4×10^4 cells/mL) were seeded in wells of a 96 well plate at 0.135 mL per well. Then, 15 μL of each of serial dilutions of test substances was added to a respective well, and incubated under conditions of carbon dioxide 5% at a temperature 37° C. Alamar Blue solution was added at 50 μL per well on day 0 and day 3, and incubated for one day, and thereafter fluorescence intensity at 590 nm using an excitation wavelength of 530 nm was determined by Cytoflour 4000 (Applied Biosystems).

Jurkat cells = assay: Proliferation inhibitory activity on hematologic neoplasm cells, Jurkat; assay type: cell-based; conditions: 3 days, Alamar Blue
Protocol: as §1

[3] = system: allogeneic mixed lymphocyte reaction; assay: Allogeneic mixed lymphocyte reaction; assay type: cell-based, mouse; conditions: C57BL/6N spleen stimulator cells, BALB/c lymph node responder cells, 86 hours, BrdU
Protocol: Spleen cells prepared from C57BL/6N female mice (8-10 weeks old, purchased from Charles River Laboratories Japan Inc.) and peripheral lymph node mononuclear cells prepared from BALB/c female mice (8-10 weeks old, purchased from Charles River Laboratories Japan Inc.) were used as stimulator cells and responder cells, respectively. The respective cells were suspended in RPMI 1640 medium (containing 10% fetal bovine serum, 100 units/mL penicillin, and 0.1 mg/mL streptomycin) (with 2×10^6 cells/mL).

mouse spleen cells = assay: Proliferation inhibition assay for mouse spleen cells; assay type: cell-based; conditions: 72 h, 3 days, Alamar Blue
Protocol: Spleen cells (2×10^6 cells/mL) prepared from C57BL/6N female mice (8 weeks old, purchased from Charles River Laboratories Japan Inc.) were suspended in RPMI 1640 medium (containing 10% fetal bovine serum, 10 mM HEPES, 1 mM pyruvic acid, 4.5 g/L glucose, 100 units/mL penicillin, and 0.1 mg/mL streptomycin), and seeded in wells of a 96 well plate at 0.225 mL per well. Serial dilutions of test substances were added to respective wells, and then concanavalin A (Con A, 3 μg/mL), lipopolysaccharide (LPS, 100 μg/mL), or an anti-mouse IgM antibody (100 μg/mL) were added. Thereafter, they were incubated under conditions of carbon dioxide 5% at a temperature 37° C. for 3 days. Next, Alamar Blue solution was added at 50 μL per 150 μL, and after having cultured for one day, the fluorescence intensity at 590 nm using an excitation wavelength of 530 nm was determined by Cytoflour 4000 (Applied Biosystems).

fulminant hepatitis = assay: Fulminant hepatitis model (galactosamine and LPS); assay type: in vivo, mouse; conditions: BALB/c mice, galactosamine 800 mg/kg and LPS 110 μg/kg i.p.
Protocol: BALB/c male mice (7 weeks old, purchased from Charles River Laboratories Japan Inc.) were used in the experiment. After having orally administered the test substances suspended in 5% HPC, galactosamine (800 mg/kg) and LPS (110 μg/kg) were intraperitoneally administered. Then, survival rates at 72 hours after administration were obtained.

[4] = LPS 100 μg/mL, read-out: Inhibition of LPS response
[5] = concanavalin A 3 μg/mL, read-out: Inhibition of Con A response
[6] = anti-mouse IgM antibody 100 μg/mL, read-out: Inhibition of Anti-IgM antibody response

| Molecule | IC50 (THP-1 cells; Homo sapiens, THP-1, 72 h) | IC50 ([1]; Homo sapiens, 72 h) | IC50 (HL 60 cells; Homo sapiens, HL-60, 72 h) | IC50 (Daudi cells; Homo sapiens, Daudi, 72 h) | melting point | IC50 (U 937 cells; Homo sapiens, U-937, 72 h) | IC50 ([2]; Oryctolagus cuniculus, 72 h) | IC50 (Jurkat cells; Homo sapiens, Jurkat, 72 h) | IC50 ([3]; Mus musculus, Lymphocyte) | IC50 (mouse spleen cells; [4]) | IC50 (mouse spleen cells; [5]) | Survival Rate after 72 Hours (fulminant hepatitis; 100 mg/kg oral) | also measured |
| --- | --- | --- | --- | --- | --- | --- | --- | --- | --- | --- | --- | --- | --- |
| Oc1ccc2nc(C(F)F)n(-c3nc(N4CCOCC4)nc(N4CCOCC4)n3)c2c1 [Compound 16, 2-(2-Difluoromethyl-6-hydroxybenzimidazol-1-yl)-4,6-dimorpholino-1,3,5-triazine] | 112 nM | 12.3 nM | 67.2 nM | 10.3 nM | > 250 °C | 604 nM | 163 nM | 357 nM | 460 nM | – | – | – | – |
| Nc1cccc2c1nc(C(F)F)n2-c1nc(N2CCOCC2)nc(N2CCOCC2)n1 [Compound 14, 2-(4-Amino-2-difluoromethylbenzimidazol-1-yl)-4,6-dimorpholino-1,3,5-triazine] | 286 nM | 92.3 nM | 396 nM | 65.5 nM | 214 to 216 °C (dec.) | 1110 nM | 484 nM | 1340 nM | 227 nM | – | – | – | – |
| Cc1nc2ccccc2n1-c1nc(N2CCOCC2)nc(N2CCOCC2)n1 [Compound 1, 2-(2-Methylbenzimidazol-1-yl)-4,6-dimorpholino-1,3,5-triazine] | 535 nM | 1780 nM | > 10000 nM | 827 nM | 218 to 220 °C (dec.) | > 10000 nM | 4850 nM | 5020 nM | 670 nM | 0.1 to 10 µM | 0.1 to 10 µM | – | – |
| Cc1cccc2c1nc(C(F)F)n2-c1nc(N2CCOCC2)nc(N2CCOCC2)n1 [Compound 10, 2-(2-Difluoromethyl-4-methylbenzimidazol-1-yl)-4,6-dimorpholino-1,3,5-triazine] | 794 nM | 825 nM | 1790 nM | 160 nM | 259 to 260 °C | > 10000 nM | 6510 nM | > 10000 nM | 344 nM | 10 to 100 µM | 0.1 to 10 µM | – | IC50 (mouse spleen cells; [6]): 0.1 to 10 µM |
| Nc1nc2ccccc2n1-c1nc(N2CCOCC2)nc(N2CCOCC2)n1 [Compound 6, 2-(2-Aminobenzimidazol-1-yl)-4,6-dimorpholino-1,3,5-triazine] | 5540 nM | 2080 nM | > 10000 nM | 803 nM | – | > 10000 nM | 6350 nM | 6620 nM | 3630 nM | 0.1 to 10 µM | 0.1 to 10 µM | 40% | IC50 (mouse spleen cells; [6]): 0.1 to 10 µM |
| OCc1nc2ccccc2n1-c1nc(N2CCOCC2)nc(N2CCOCC2)n1 [Compound 3, 4,6-Dimorpholino-2-(2-hydroxymethylbenzimidazol-1-yl)-1,3,5-triazine] | 135 nM | 1130 nM | 3160 nM | 379 nM | 208 to 210 °C (dec.) | 4140 nM | 1780 nM | 3270 nM | 600 nM | 0.1 to 10 µM | 0.1 to 10 µM | – | – |
| COc1ccc2c(c1)nc(C(F)F)n2-c1nc(N2CCOCC2)nc(N2CCOCC2)n1 [Compound 23, 2-(2-Difluoromethyl-5-methoxybenzimidazol-1-yl)-4,6-dimorpholino-1,3,5-triazine] | 68.6 nM | 19.2 nM | 139 nM | 13.2 nM | – | 345 nM | 121 nM | 229 nM | 258 nM | – | – | – | – |
| Oc1cccc2c1nc(C(F)F)n2-c1nc(N2CCOCC2)nc(N2CCOCC2)n1 [Compound 15, 2-(2-Difluoromethyl-4-hydroxybenzimidazol-1-yl)-4,6-dimorpholino-1,3,5-triazine] | 45.4 nM | 2.91 nM | 35.8 nM | 4.92 nM | – | 217 nM | 85.6 nM | 116 nM | 42.1 nM | – | – | 0% | Survival Rate after 72 Hours (fulminant hepatitis; 50 mg/kg oral): 17% |
| 2-(2-Difluoromethyl-4-hydroxybenzimidazol-1-yl)-4-morpholino-6-(2,6-dimethylmorpholino)pyrimidine [Compound 11] | – | – | – | – | – | – | – | – | – | – | – | – | IC50 (THP-1 cells): > 10000 nM; IC50 [1]: > 10000 nM; IC50 (HL 60 cells): > 10000 nM; IC50 (Daudi cells): 2750 nM; IC50 (U 937 cells): > 10000 nM; IC50 [2]: > 10000 nM; IC50 (Jurkat cells): > 10000 nM; IC50 [3]: 1430 nM |
| Oc1cccc2c1nc(C(F)F)n2-c1nc(N2CCOCC2)cc(N2CCOCC2)n1 [Compound 18, 2-(2-Difluoromethyl-4-hydroxybenzimidazol-1-yl)-4,6-dimorpholinopyrimidine] | – | – | – | – | – | – | – | – | – | – | – | 80% | Survival Rate after 72 Hours (fulminant hepatitis; 50 mg/kg oral): 50% |
